One block for each molecule: values may come before it. Where a SMILES comes first, the peptide text is derived from it. [ ]: non-standard residue; d: D form. The star is where a group is joined. AMC = Cc1cc(=O)oc2cc(N*)ccc12
How the values were obtained:
[1] = target: proteinase-activated receptor 2 (human (endogenous in HEK-293, THP-1 and primary monocytes/macrophages)) (UniProt P55085)
[2] = target: T1, PAR2 (proteinase-activated receptor 2) (Homo sapiens, UniProt P55085); experiment: calcium signaling (Fluo-4 AM), HEK-293 cells; type: cell-based; conditions: antagonist; pre-treatment, then 0.15 µM 2fLI as agonist; 37 °C
T1 construct: gene F2RL1; endogenous full-length receptor in HEK-293 cells; no response to 2fLI in CRISPR PAR2-knockout HEK-293
T1 sequence (P55085 26-397): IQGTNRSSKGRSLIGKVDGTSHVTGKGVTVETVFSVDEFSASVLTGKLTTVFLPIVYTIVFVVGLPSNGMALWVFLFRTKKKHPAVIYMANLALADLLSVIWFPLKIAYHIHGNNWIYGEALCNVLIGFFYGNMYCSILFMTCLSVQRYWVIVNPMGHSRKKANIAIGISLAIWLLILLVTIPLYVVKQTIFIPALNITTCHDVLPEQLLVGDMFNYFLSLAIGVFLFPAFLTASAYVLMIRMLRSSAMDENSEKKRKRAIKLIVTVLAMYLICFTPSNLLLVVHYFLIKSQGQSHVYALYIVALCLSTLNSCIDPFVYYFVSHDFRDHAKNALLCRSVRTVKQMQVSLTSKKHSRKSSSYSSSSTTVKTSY

Tryptase-6 (PRSS33) = target: T2, Tryptase-6 (PRSS33) (Homo sapiens, UniProt Q8NF86); experiment: fluorogenic cleavage, antibody pull-down from synovial fluid; type: biochemical; conditions: 37 °C; ex 380 nm, em 460 nm; enzyme captured by plate-immobilized antibody
T2 construct: native active enzyme (~25 kDa) captured by anti-tryptase-6 antibody from patient synovial fluid
T2 sequence (Q8NF86 37-280): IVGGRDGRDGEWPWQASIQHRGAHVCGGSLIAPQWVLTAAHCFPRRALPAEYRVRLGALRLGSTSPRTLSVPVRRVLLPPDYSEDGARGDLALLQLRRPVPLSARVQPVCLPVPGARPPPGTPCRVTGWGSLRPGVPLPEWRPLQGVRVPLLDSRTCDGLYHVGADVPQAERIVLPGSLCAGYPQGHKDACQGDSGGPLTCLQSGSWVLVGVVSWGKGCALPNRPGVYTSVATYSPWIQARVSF

calcium signaling (Fluo-4 AM) in HEK-293 cells, concentration-effect curve of 2fLI, EC50 [1]: 140 nM
Molecule: 2-furoyl-LIGRLO-NH2 (peptide)

IC50 [2]: 2.1 nM
Molecule: CC(C)(C)c1cc(-c2ccc(F)cc2)nn2cc(C(=O)N3CCNC(=O)C3(C)C)nc12 [I-191]

Molecule: Cc1cc(=O)oc2cc(NC(=O)[C@H](CCCCN)NC(=O)[C@H](CC(C)C)NC(=O)[C@H](N)C(C)C)ccc12 [VLK-AMC] (H-[dV]-Leu-Lys-{AMC})
fluorogenic cleavage, antibody pull-down from synovial fluid (Tryptase-6 (PRSS33)): Tryptase-6 activity increased when both substrates were added
